# In ChEMBL document CHEMBL4680220, “Synthesis and biological evaluation of acridine-based histone deacetylase inhibitors as multitarget agents against Alzheimer's disease” (Eur J Med Chem, 2020):
# Target: T1, Histone deacetylase 7 (Homo sapiens, UniProt Q8WUI4)
# T1 sequence (Q8WUI4 whole entry): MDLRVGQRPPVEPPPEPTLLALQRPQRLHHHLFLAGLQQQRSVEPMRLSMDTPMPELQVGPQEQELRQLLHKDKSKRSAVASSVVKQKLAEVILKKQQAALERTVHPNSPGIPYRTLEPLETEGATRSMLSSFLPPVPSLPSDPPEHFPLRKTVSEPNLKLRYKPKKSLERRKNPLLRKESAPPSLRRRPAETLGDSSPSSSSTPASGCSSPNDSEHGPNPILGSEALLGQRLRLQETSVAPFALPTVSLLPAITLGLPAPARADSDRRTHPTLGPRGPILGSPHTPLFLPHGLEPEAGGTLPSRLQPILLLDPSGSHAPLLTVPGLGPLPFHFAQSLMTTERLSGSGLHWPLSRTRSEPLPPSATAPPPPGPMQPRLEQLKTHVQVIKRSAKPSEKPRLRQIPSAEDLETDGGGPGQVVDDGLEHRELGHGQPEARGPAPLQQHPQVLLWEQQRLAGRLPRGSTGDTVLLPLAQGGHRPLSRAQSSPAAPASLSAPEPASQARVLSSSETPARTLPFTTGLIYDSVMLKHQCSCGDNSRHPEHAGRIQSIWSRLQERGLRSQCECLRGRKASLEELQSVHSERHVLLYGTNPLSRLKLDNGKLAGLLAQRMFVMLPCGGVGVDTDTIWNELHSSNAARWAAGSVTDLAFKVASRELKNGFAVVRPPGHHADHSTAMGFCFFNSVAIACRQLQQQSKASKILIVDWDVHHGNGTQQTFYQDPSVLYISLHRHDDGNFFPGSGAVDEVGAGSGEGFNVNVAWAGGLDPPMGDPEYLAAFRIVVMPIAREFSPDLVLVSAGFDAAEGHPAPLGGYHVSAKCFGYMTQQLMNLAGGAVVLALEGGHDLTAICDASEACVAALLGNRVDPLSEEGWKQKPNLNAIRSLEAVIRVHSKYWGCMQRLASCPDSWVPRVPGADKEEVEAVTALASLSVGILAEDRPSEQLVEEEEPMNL
# Assay: Inhibition of recombinant human N-terminal GST-tagged HDAC7 (518 to end residues) expressed in baculovirus infected Sf9 cells using fluorogenic HDAC 2A substrate preincubated for 5 mins followed by substrate addition and measured after 30 mins by fluorescence assay
smiles,measurement,value
O=C(NO)c1ccc(Nc2c3ccccc3nc3ccc(Br)cc23)cc1,IC50,9.13 µM
